According to US20170327494A1, “NON-INVASIVE VENTILATION WITH HIGH FREQUENCY OSCILLATIONS” (KONINKLIJKE PHILIPS N.V., priority 2014, published 2017):

melting point: 117 to 119 °C
Compound: N#C/C(=C1/SCC(c2cc(Cl)sc2Cl)S1)n1ccnc1 (stereo not shown) [I.h.25, (2E)-2-[4-(2,5-dichloro-3-thienyl)-1,3-dithiolan-2-ylidene]-2-imidazol-1-yl-acetonitrile]
